Assay results as given in article PMC10539439 (Pharmacological Reports, 2023).

Experiment: Pharmacokinetics in plasma after ip administration
Assay type: in vivo, rat
Description: For the pharmacokinetic study, a group of 56 adult male rats (Wistar, 220–250 g, […]) were used in the experiment. Animals were purchased from the Animal House of the Faculty of Pharmacy of Jagiellonian University Medical College, Krakow, Poland. During the habituation period, the groups of 4 rats were kept in a plastic cage at a controlled room temperature (22 ± 2 ℃), humidity (55 ± 10%), full-spectrum cold white light (350–400 lx), in 12 h light/dark cycles (the lights on at 7:00 am, and off at 19:00 pm), and had free access to standard laboratory pellet and tap water. […] These were then given through an intraperitoneally injections (ip) at a dose of 0.3 mg/kg and 0.4 mg/kg, respectively. Blood samples were collected at 0 min (predose), 5 min, 15 min, 30 min, 60 min, 120 min, and 240 min after compound administration. Blood and brain samples were collected under general anesthesia induced by ip injections of 50 mg/kg ketamine plus 8 mg/kg xylazine. Blood samples were taken in heparinized tubes and immediately centrifuged at 3500 rpm for 10 min, and plasma was collected. Brain and plasma samples were immediately frozen at – 80 ℃ for LC/MS/MS analysis. All experimental procedures were carried out according to EU Directive 2010/63/EU and approved by the I Local Ethics Committee for Animal Experiments of the Jagiellonian University in Krakow, Poland (No. 94/2016).
The pharmacokinetic parameters were calculated using a non-compartmental approach from the average concentration values, using Phoenix WinNonlin software (Certara, Princeton, NJ 08540 USA). The first-order elimination rate constant (λz) was calculated by linear regression of time versus log concentration. Next, the area under the mean plasma and the concentration in the brain versus the time curve (AUC0→t) were estimated using the log-linear trapezoidal rule (Eq. 1), where Cn is the concentration of the last sampling of each compound1 AUC0→t=∑i=1n(Ci+Ci+1)/2·ti+1-ti+Cn/λz.
The area under the first-moment curve (AUMC0→t) was estimated by calculating of the total area under the first-moment curve using Eq. 2, where tn is the time of last sampling2 AUMC0→t=∑i=1n(ti·Ci+ti+1·Ci+1)/2·ti+1-ti+(tn·Cn)/λz+Cn/λz2.
Mean residence time (MRT, Eq. 3) was calculated as3 MRT=AUMC0→t/AUC0→t.
Total clearance (ClT, Eq. 4) was calculated as4 C1T=F·Di.p./AUC0→t.
The quantification of compounds in plasma and brain samples was performed using the Sciex API 3200 triple quadrupole mass spectrometer (Concord, Ontario, Canada) equipped with an electrospray (ESI) ionization interface. This instrument was coupled to an Elite LaChrom (Hitachi, USA) HPLC system. Data acquisition and processing were performed using Sciex Analyst 1.5.2 data collection and integration software. After preparation, the samples were injected (20 µL) onto XBridge C18 (2.1 mm × 30 mm, 3.5 μm, Waters, Milford, Massachusetts, USA) analytical column. The mobile phase consisted of 0.1% formic acid in acetonitrile (A) and 0.1% formic acid in water (B) was delivered in a gradient elution starting with 90% of eluent B, increasing for 2 min to 90% of eluent A, maintained for 3 min, and then returned for 5 min to 90% of eluent B, and maintained 90% of eluent B during 5 min at a flow rate of 300 µL/min. The total analysis time was 10 min. […] The ion spray source settings were as follows: spray voltage: 5.5 kV, heater temperature: 400 °C, curtain gas: 10 psi, source gas 1: 20 psi, and source gas 2: 20 psi.
Further dilutions were performed using the same solvent to prepare working standard solutions of the analyte at the following concentrations: 0.025, 0.05, 0.1, 0.25, 0.5, 1.0, 2.5, 5.0, 10, 25, and 50 µg/mL for calibration curve samples (CC) and 0.025, 0.075, 2.2, and 4.5 µg/mL for quality control samples (QC). […]

## N=C(N)N/N=C/c1c(Cl)cccc1Cl [Guanabenz]
male, Wistar, rat, intraperitoneal, plasma, 5 min after administration, mean
  concentration at 5 min: 10.2 ng/mL
male, Wistar, rat, intraperitoneal, plasma, 15 min after administration, mean
  concentration at 15 min: 91.2 ng/mL
male, Wistar, rat, intraperitoneal, plasma, 30 min after administration, mean
  concentration at 30 min: 95.1 ng/mL
male, Wistar, rat, intraperitoneal, plasma, 60 min after administration, mean
  concentration at 60 min: 14.2 ng/mL
male, Wistar, rat, intraperitoneal, plasma, 120 min after administration, mean
  concentration at 120 min: 26.1 ng/mL
male, Wistar, rat, intraperitoneal, plasma, 240 min after administration, mean
  concentration at 240 min: 8.53 ng/mL
male, Wistar, rat, plasma, ip
  CL/F: 13.5 mL/min/kg
  Tmax: 0.5 h
  Vd/F: 1.61 L/kg
male, Wistar, rat, plasma, ip, rat plasma, ip, Guanabenz 0.3 mg/kg, 4-OH-Guanabenz 0.4 mg/kg, read-out: t0.5 terminal half-life
  half-life: ~1.38 h
Rat plasma, ip, Guanabenz 0.3 mg/kg, 4-OH-Guanabenz 0.4 mg/kg
  t0.5 terminal half-life: 1.38 h
rat, ip, Guanabenz 0.3 mg/kg, 4-OH-Guanabenz 0.4 mg/kg
  volume of distribution: 1.6 L/kg
